{"source": "patent US20220362330A1", "about": "“Compositions and Methods for Increasing Epithelial Barrier Function” (The Board of Trustees of the Leland Stanford Junior …, priority 2019, published 2022)", "key": {"[1]": {"system": "vaginal microbiota / pro-inflammatory mediators", "assay": "Bacteria and inflammation in genital mucosa", "type": "in vivo, mice", "excerpt": "While prior clinical studies identified increased inflammation in the genital tracts of women using DMPA, the underlying mechanism for this effect had been undefined. Because DMPA increased genital mucosal permeability, it was posited DMPA increases inflammation by promoting entry of the vaginal microbiota into mucosal tissue."}, "DSG1": {"system": "DSG1", "assay": "DSG1 gene expression in ectocervical biopsies from women", "type": "in vivo", "settings": "1 month after initiating DMPA vs no hormonal contraceptive", "excerpt": "FIG. 3 is a graph showing the effect of DMPA on ectocervical DSG1 gene expression in women. Ectocervical biopsy tissue collected from the same women; before they started (No HC) and 1 month after they initiated DMPA.\nTo confirm the relevance of the mouse model findings, DMPA-mediated changes in mucosal permeability was explored with ectocervical biopsies from women using no hormonal contraceptive and again 1 month after they initiated DMPA.\nHuman ectocervical and murine vaginal tissues were immediately immersed in 1 mL of RNAlater® (Qiagen), stored for 24 h at 4° C., and stored long-term at −80° C. RNA isolated using the RNeasy Lipid Tissue Kit (Qiagen) using manufacturer's instructions was re-suspended in nuclease-free water and quantified using a NanoDrop spectrophotometer (Thermo Scientific). The following mouse primers were utilized: desmocollin 1 (Mm00496525_ml), desmoglein-1α (Mm00809994_s1), ephrinA3 (Mm01212723_g1) and pyruvate carboxylase (Mm00500992_ml) as housekeeping reference gene (all from Thermo Scientific). […] To define relative gene expression, 100 ng of RNA was mixed with TaqMan® RNA-to-Ct™ 1-Step Kit and adequate primer (final volume of 10 μL/well) using manufacturer's instructions (Life Technologies). qRT-PCR was performed using a Quantstudio3 Thermal Cycler, and data analyzed via Quanstudio Software (Applied Biosystems)."}, "desmocollin-1 (DSC1)": {"system": "desmocollin-1 (DSC1)", "assay": "qRT-PCR of Dsc1 gene expression in vaginal tissue", "type": "in vivo, mice", "settings": "progestin-treated mice vs mice in estrus", "description": "(§1) To define progestin-mediated changes in mucosal permeability, vaginal tissue from mice in estrus, diestrus, or after DMPA or LNG treatment was used to measure expression of the desmosomal cadherins desmoglein-1a (DSG1a) and desmocollin-1 (DSC1).\n(§2) Human ectocervical and murine vaginal tissues were immediately immersed in 1 mL of RNAlater® (Qiagen), stored for 24 h at 4° C., and stored long-term at −80° C. RNA isolated using the RNeasy Lipid Tissue Kit (Qiagen) using manufacturer's instructions was re-suspended in nuclease-free water and quantified using a NanoDrop spectrophotometer (Thermo Scientific). The following mouse primers were utilized: desmocollin 1 (Mm00496525_ml), desmoglein-1α (Mm00809994_s1), ephrinA3 (Mm01212723_g1) and pyruvate carboxylase (Mm00500992_ml) as housekeeping reference gene (all from Thermo Scientific). These human primers were used: desmoglein-1 (Hs00355084_m1) and glucose-6-phosphate isomerase (Hs00976711_m1) as a housekeeping reference gene. To define relative gene expression, 100 ng of RNA was mixed with TaqMan® RNA-to-Ct™ 1-Step Kit and adequate primer (final volume of 10 μL/well) using manufacturer's instructions (Life Technologies). qRT-PCR was performed using a Quantstudio3 Thermal Cycler, and data analyzed via Quanstudio Software (Applied Biosystems)."}, "genital mucosa": {"system": "genital mucosa", "assay": "Entry of activated hPBMCs into vaginal tissue of humanized mice", "type": "in vivo, hPBMC-engrafted NSG mice", "settings": "CFSE-labeled activated hPBMCs ivag, 15 h; DMPA vs DMPA and E cream", "description": "Because mice treated with DMPA and E were HSV-2 resistant and DMPA facilitated entry of leukocytes into vaginal tissue, it was posited that exogenous E blocks HIV-1 acquisition in a humanized mouse model of cell-associated HIV transmission. Human PBMC (hPBMCs)-engrafted NSG mice treated with DMPA or DMPA and E cream were ivag inoculated with CFSE-labeled activated hPBMCs. 15 h later, entry of these cells into vaginal tissue was examined by confocal microscopy. […] Humanized NSG mice treated as described above were also ivag infected with cell-associated HIV-1 (10^6 hPBMCs infected with HIV-1 Ba-L). 10 days later, serum was collected to quantify HIV-1 load via qRT-PCR.\nTo evaluate mucosal permeability to activated leukocytes, 10^6 human peripheral blood mononuclear cells (hPBMC)/ml were plated in RPMI-1640 supplemented with 10% FBS, 2 mM L-glutamine, 1 mM sodium pyruvate, non-essential amino acids, 50 μM 2-mercaptoethanol, 100 U/ml penicillin, 100 μg/ml streptomycin and 50 μg/ml gentamycin (Mediatech, Manassas, Va.) (henceforth termed complete medium). Plated cells were stimulated for 48 hours with 5 μg/ml of phytohemagglutinin (PHA) (Sigma-Aldrich, St. Louis Mo.), centrifuged, re-suspended (2×10^6 cells/ml) in complete media supplemented with 10 IU/ml recombinant human IL-2 (rhIL-2) (PeproTech, Rocky Hill, N.J.), and incubated another 5 days. […]"}, "desmoglein-1a (DSG1a)": {"system": "desmoglein-1a (DSG1a)", "assay": "qRT-PCR of Dsg1a gene expression in vaginal tissue", "type": "in vivo, mice", "settings": "progestin-treated mice vs mice in estrus", "description": "as §1, §2"}, "[2]": {"system": "upstream regulators EFNA3 and ROCK2", "assay": "Genome-wide gene expression and pathway analysis of vaginal tissue", "type": "in vivo", "settings": "DMPA-treated vs estrus-stage mice", "description": "The above results established changes that occur in genital mucosa of women initiating DMPA are recapitulated in DMPA-treated mice, and these that changes include lower expression of the cell-cell adhesion molecule DSG1 and increased genital mucosal permeability. To investigate mechanisms for DMPA-mediated downregulation of DSG1, genome-wide gene expression studies were performed with vaginal tissue from estrus-stage mice (i.e., mice resistant to genital HSV infection) and DMPA-treated mice (i.e., mice highly susceptible to this virus). […] EFNA molecules are involved in pathways that induce DSG1 expression and regulate epithelial cell responses and formation of intercellular adhesion complexes, and Eph receptors stimulate ROCK2-mediated actinomyosin contractility that increases keratinocyte differentiation via DSG1 upregulation. These gene expression analyses thus identified a potential mechanism by which progestins alter E-regulated expression of EFNA3 and ROCK2 and levels of DSG1. As EFNA3, DSG1, and ROCK2 are basally expressed in human genital epithelium, capacity of this E-regulated pathway to promote genital mucosal integrity in mice may also extend to results seen in the human female genital tract."}, "[3]": {"settings": "DMPA-treated vs. estrus-stage mice"}}}
{"smiles": "CC(=O)O[C@]1(C(C)=O)CC[C@H]2[C@@H]3C[C@H](C)C4=CC(=O)CC[C@]4(C)[C@H]3CC[C@@]21C", "note": "[DMPA]", "values": [{"measurement": "Gram-negative bacteria in the mucosa", "setting": "[1]; [3]", "value": "more Gram-negative bacteria"}, {"measurement": "levels of pro-inflammatory mediators in the mucosa", "setting": "[1]; [3]", "value": "higher levels of pro-inflammatory mediators"}, {"measurement": "inflammation", "setting": "[1]; germ-free mice", "value": "not inflammation"}, {"measurement": "DSG1 expression in ectocervical tissue", "setting": "DSG1", "value": "significantly lower"}, {"measurement": "DSC1 gene expression in vaginal tissue", "setting": "desmocollin-1 (DSC1)", "value": "decrease gene expression levels"}, {"measurement": "penetration of activated hPBMCs into genital mucosa", "setting": "genital mucosa", "value": "more readily penetrated the genital mucosa"}, {"measurement": "DSG1a gene expression in vaginal tissue", "setting": "desmoglein-1a (DSG1a)", "value": "decrease gene expression levels"}, {"measurement": "effect on signaling pathways (pathway analysis)", "setting": "[2]", "value": "inhibition of signaling pathways that involve ephrin-A3 (EFNA3) and ROCK2"}, {"measurement": "Expr Log Ratio", "setting": "[2]; upstream regulator EFNA3", "value": "−2.593"}]}
